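Each compound was tested at five concentrations against cells in 96-well plates for 48 hours. The concentration for 50% growth inhibition is given as GI50. TGI denotes the concentration required for complete inhibition of growth.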
Assays:
Test in all cases: inhibition of tumour cell growth, NCI panel, 48 h
NCI-H522 lung = tested on: NCI-H522 lung
COLO 205 colon = tested on: COLO 205 colon
UACC-257 melanoma = tested on: UACC-257 melanoma
MDA-MB-435 = tested on: MDA-MB-435
SN12C renal = tested on: SN12C renal
OVCAR-4 ovarian = tested on: OVCAR-4 ovarian
HCT-15 colon = tested on: HCT-15 colon
A498 renal = tested on: A498 renal
CAKI-1 renal = tested on: CAKI-1 renal
NCI-H226 lung = tested on: NCI-H226 lung
MALME-3M melanoma = tested on: MALME-3M melanoma
SK-MEL-28 melanoma = tested on: SK-MEL-28 melanoma
SF-295 CNS = tested on: SF-295 CNS
NCI-H460 lung = tested on: NCI-H460 lung
HOP-92 NSCLC = tested on: HOP-92 NSCLC
SF-268 CNS = tested on: SF-268 CNS
SNB-19 CNS = tested on: SNB-19 CNS
IGROV1 ovarian = tested on: IGROV1 ovarian
BT-549 breast = tested on: BT-549 breast
HL-60(TB) leukemia = tested on: HL-60(TB) leukemia
M14 melanoma = tested on: M14 melanoma
LOX IMVI melanoma = tested on: LOX IMVI melanoma
MCF7 breast = tested on: MCF7 breast
TK-10 renal = tested on: TK-10 renal
786-0 renal = tested on: 786-0 renal
SNB-75 CNS = tested on: SNB-75 CNS
SK-OV-3 ovarian = tested on: SK-OV-3 ovarian
OVCAR-5 ovarian = tested on: OVCAR-5 ovarian
RXF 393 renal = tested on: RXF 393 renal
MOLT-4 leukemia = tested on: MOLT-4 leukemia
SW-620 colon = tested on: SW-620 colon
NCI/ADR-RES ovarian = tested on: NCI/ADR-RES ovarian
PC-3 prostate = tested on: PC-3 prostate
ACHN renal = tested on: ACHN renal
SK-MEL-5 melanoma = tested on: SK-MEL-5 melanoma
EKVX NSCLC = tested on: EKVX NSCLC
CCRF-CEM leukemia = tested on: CCRF-CEM leukemia
SK-MEL-2 melanoma = tested on: SK-MEL-2 melanoma
T-47D breast = tested on: T-47D breast
OVCAR-3 ovarian = tested on: OVCAR-3 ovarian
HS 578T breast = tested on: HS 578T breast
A549 NSCLC = tested on: A549 NSCLC
HCT-116 colon = tested on: HCT-116 colon
DU-145 prostate = tested on: DU-145 prostate
UO-31 renal = tested on: UO-31 renal
HT29 colon = tested on: HT29 colon
U251 CNS = tested on: U251 CNS
MDA-MB-231 breast = tested on: MDA-MB-231 breast
RPMI-8226 leukemia = tested on: RPMI-8226 leukemia
OVCAR-8 ovarian = tested on: OVCAR-8 ovarian
KM12 colon = tested on: KM12 colon
HOP-62 NSCLC = tested on: HOP-62 NSCLC
HCC-2998 colon = tested on: HCC-2998 colon
NCI-H23 lung = tested on: NCI-H23 lung
SF-539 CNS = tested on: SF-539 CNS
SR leukemia = tested on: SR leukemia
UACC-62 melanoma = tested on: UACC-62 melanoma

## O=C(O)c1cc2cc(O)ccc2[nH]1
NCI-H522 lung
  GI50: > 100 µM
  TGI: > 100 µM
COLO 205 colon
  GI50: > 100 µM
  TGI: > 100 µM
UACC-257 melanoma
  GI50: > 100 µM
  TGI: > 100 µM
MDA-MB-435
  GI50: > 100 µM
  TGI: > 100 µM
SN12C renal
  GI50: > 100 µM
  TGI: > 100 µM
OVCAR-4 ovarian
  GI50: > 100 µM
  TGI: > 100 µM
HCT-15 colon
  GI50: > 100 µM
  TGI: > 100 µM
A498 renal
  GI50: > 100 µM
  TGI: > 100 µM
CAKI-1 renal
  GI50: > 100 µM
  TGI: > 100 µM
NCI-H226 lung
  GI50: > 100 µM
  TGI: > 100 µM
MALME-3M melanoma
  GI50: > 100 µM
  TGI: > 100 µM
SK-MEL-28 melanoma
  GI50: > 100 µM
  TGI: > 100 µM
SF-295 CNS
  GI50: > 100 µM
  TGI: > 100 µM
NCI-H460 lung
  GI50: > 100 µM
  TGI: > 100 µM
HOP-92 NSCLC
  GI50: > 100 µM
  TGI: > 100 µM
SF-268 CNS
  GI50: > 100 µM
  TGI: > 100 µM
SNB-19 CNS
  GI50: > 100 µM
  TGI: > 100 µM
IGROV1 ovarian
  GI50: > 100 µM
  TGI: > 100 µM
BT-549 breast
  GI50: > 100 µM
  TGI: > 100 µM
HL-60(TB) leukemia
  GI50: > 100 µM
  TGI: > 100 µM
M14 melanoma
  GI50: > 100 µM
  TGI: > 100 µM
LOX IMVI melanoma
  GI50: > 100 µM
  TGI: > 100 µM
MCF7 breast
  GI50: > 100 µM
  TGI: > 100 µM
TK-10 renal
  GI50: > 100 µM
  TGI: > 100 µM
786-0 renal
  GI50: > 100 µM
  TGI: > 100 µM
SNB-75 CNS
  GI50: > 100 µM
  TGI: > 100 µM
SK-OV-3 ovarian
  GI50: > 100 µM
  TGI: > 100 µM
OVCAR-5 ovarian
  GI50: > 100 µM
  TGI: > 100 µM
RXF 393 renal
  GI50: > 100 µM
  TGI: > 100 µM
MOLT-4 leukemia
  GI50: > 100 µM
  TGI: > 100 µM
SW-620 colon
  GI50: > 100 µM
  TGI: > 100 µM
NCI/ADR-RES ovarian
  GI50: > 100 µM
  TGI: > 100 µM
PC-3 prostate
  GI50: > 100 µM
  TGI: > 100 µM
ACHN renal
  GI50: > 100 µM
  TGI: > 100 µM
SK-MEL-5 melanoma
  GI50: > 100 µM
  TGI: > 100 µM
EKVX NSCLC
  GI50: > 100 µM
  TGI: > 100 µM
CCRF-CEM leukemia
  GI50: > 100 µM
  TGI: > 100 µM
SK-MEL-2 melanoma
  GI50: > 100 µM
  TGI: > 100 µM
T-47D breast
  GI50: > 100 µM
  TGI: > 100 µM
OVCAR-3 ovarian
  GI50: > 100 µM
  TGI: > 100 µM
HS 578T breast
  GI50: > 100 µM
  TGI: > 100 µM
A549 NSCLC
  GI50: > 100 µM
  TGI: > 100 µM
HCT-116 colon
  GI50: > 100 µM
  TGI: > 100 µM
DU-145 prostate
  GI50: > 100 µM
  TGI: > 100 µM
UO-31 renal
  GI50: > 100 µM
  TGI: > 100 µM
HT29 colon
  GI50: > 100 µM
  TGI: > 100 µM
U251 CNS
  GI50: > 100 µM
  TGI: > 100 µM
MDA-MB-231 breast
  GI50: > 100 µM
  TGI: > 100 µM
RPMI-8226 leukemia
  GI50: > 100 µM
  TGI: > 100 µM
OVCAR-8 ovarian
  GI50: > 100 µM
  TGI: > 100 µM
KM12 colon
  GI50: > 100 µM
  TGI: > 100 µM
HOP-62 NSCLC
  GI50: > 100 µM
  TGI: > 100 µM
HCC-2998 colon
  GI50: > 100 µM
  TGI: > 100 µM
NCI-H23 lung
  GI50: > 100 µM
  TGI: > 100 µM
SF-539 CNS
  GI50: > 100 µM
  TGI: > 100 µM
SR leukemia
  GI50: > 100 µM
  TGI: > 100 µM
UACC-62 melanoma
  GI50: > 100 µM
  TGI: > 100 µM

From PubChem BioAssay (NCI)
